Laboratory results taken from patent US7560547B2, “Hydroxyalkyl cyclic diamine compounds” (Kowa Co., Ltd., priority 2002, dated 2009).

| melting point [°C] | Compound |
| --- | --- |
| 118 to 120 | Cc1cc(Br)c([N+](=O)[O-])c(Br)n1 [Example 1, 2,4-dibromo-6-methyl-3-nitropyridine] |
| 93 to 94 | Cc1cc(Br)c(N)c(Br)n1 [Example 2, 3-amino-2,4-dibromo-6-methylpyridine] |
| 197 to 199 | Cc1cc(Br)c(NC(=O)CBr)c(Br)n1 [Example 3, N-[2,4-dibromo-6-methylpyridin-3-yl]-2-bromoacetamide] |
| 184 to 185 | Cc1cc(Cl)c(NC(=O)CBr)c(Cl)n1 [Example 5, N-[2,4-dichloro-6-methylpyridin-3-yl]-2-bromoacetamide] |
| 119 to 120 | CSc1cc(C)nc(SC)c1NC(=O)CN1CCN(CCO)CC1 [Example 7, 2-[4-(2-hydroxyethyl)piperazin-1-yl]-N-[2,4-bis(methylthio)-6-methylpyridin-3-yl]acetamide] |
